US20240165029A1, “ASSISTED LOADING OF HYDROPHOBIC MOLECULES INTO LIPOSOMES” (UNIVERSITY OF CONNECTICUT, priority 2021, published 2024)
Entries after “also recorded” stand apart in the source; their conditions may differ.

Columns and labels:
mBCO2 [1] = biological target: T1, mBCO2 (Mus musculus, UniProt Q99NF1); test: Acyl-RAC assay of mBCO2 palmitoylation in HEK293F cells; type: cell-based; conditions: for mBCO2 palmitoylation (protein band in HAM-treated sample): HEK293F cells, 5 h
T1 construct: expressed in transfected cells; host or cells: HEK293F (Human 293F FreeStyle) cells
T1 sequence (Q99NF1 1-532): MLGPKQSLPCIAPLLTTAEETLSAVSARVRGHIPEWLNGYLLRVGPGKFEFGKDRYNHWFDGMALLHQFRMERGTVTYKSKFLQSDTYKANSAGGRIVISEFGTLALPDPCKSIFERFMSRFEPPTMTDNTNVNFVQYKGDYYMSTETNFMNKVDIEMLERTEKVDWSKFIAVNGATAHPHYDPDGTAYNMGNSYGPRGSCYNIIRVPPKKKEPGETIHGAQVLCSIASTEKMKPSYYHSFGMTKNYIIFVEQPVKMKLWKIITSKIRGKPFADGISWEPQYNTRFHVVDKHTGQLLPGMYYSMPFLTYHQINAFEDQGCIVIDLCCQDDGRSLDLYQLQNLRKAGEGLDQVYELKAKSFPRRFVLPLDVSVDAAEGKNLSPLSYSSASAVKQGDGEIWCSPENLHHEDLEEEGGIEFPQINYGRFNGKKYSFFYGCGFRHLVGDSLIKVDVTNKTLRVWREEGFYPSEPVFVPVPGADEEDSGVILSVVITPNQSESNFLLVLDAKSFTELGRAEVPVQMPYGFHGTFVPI
Protocol: previously published protocol. Briefly, a typical transfection experiment used 3×10^7 cells in 28 mL of FreeStyle medium mixed with 2 mL of OptiMem-I reduced serum medium containing 40 μL 293fectin transfection reagent (Invitrogen) and 20 μg of each expression plasmid under study. Cells were grown with shaking at 125 rpm on an orbital shaker platform in a 37° C. incubator with a humidified atmosphere of 8% CO2 for 48 h total. In total, 200 μl of vesicles with xanthophylls were added, incubating for 5 hr under standard growth conditions.
For cell lysis and the Acyl-RAC assay, the same protocol as previously described in detail, with slight modifications, was used. BCO2-overexpressing HEK293F cells were washed with 1X-PBS and resuspended in lysis buffer (50 mM HEPES (pH 7.4) containing 150 mM NaCl, 5 mM EDTA, 1% glycerol, and 1× complete protease inhibitor cocktail (Roche Diagnostics)). Resuspended cells were lysed using N2 cavitation followed by centrifugation at 900×g for 10 min at 4° C. to remove the cell debris and nuclei. The clarified supernatant was then subjected to centrifugation at 20,000×g for 30 min at 4° C. to obtain heavy membrane (mitochondrial) pellet and post-mitochondrial supernatant (light membrane and cytosol) fractions. Typically, a 1000 μg amount of resuspended heavy membrane pellet protein (resuspended in lysis buffer containing 0.1% Triton X-100) was used for palmitoylation detection assay. Briefly, free cysteine sulfhydryl (—SH) groups were blocked with 0.5% (v/v) S-methyl methanethiosulfonate (MMTS) containing blocking buffer for 15 min at 40 ° C. The blocked protein samples were then subjected to acetone protein precipitation. The protein pellet was then resuspended in 550 μl 100 mM HEPES containing 5 mM EDTA and 1% SDS (v/v). The samples were then divided into two 250 μl aliquots (containing 400 μg protein amount) and the remaining 50 μl was used as an input. The samples were treated with 250 mM hydroxylamine (NH2OH, HAM) or control (250 mM NaCl). To capture proteins with free —SH groups, each sample was mixed with 10 mg activated thiol-sepharose 4B beads (Sigma) and incubated for 2 h at room temperature with continuous end-over-end rotation. After incubation, the beads were washed, and bound proteins were eluted by boiling the beads with an aliquot of 50 μL elution sample buffer. The input and eluted fractions from “HAM” and “control” samples were separated by SDS-PAGE and analyzed by Western blotting.
(§1) It was previously established that mBCO2 in eukaryotic HEK293F cells is palmitoylated. […] Knowing that BCO2 cleaves xanthophylls, palmitoylation assays were ran to study the palmitoylation status of mBCO2 in the presence of xanthophylls. First, xanthophylls were attempted to be delivered with the detergent Tween 40 [50]. […] Therefore, a new method to deliver xanthophylls without detergents using unilamellar LUVs as described above was established. The content of xanthophylls in the HEK293F cells after 5 h of treatment was similar to a Tween 40 delivery system in ARPE-19 cells (1-2%) (FIG. 9A-9B). Subsequently, the acyl-RAC method was used as described previously. The membrane fraction of HEK293F cells expressing mBCO2 was subjected to treatment with hydroxylamine (+HAM) and an equal portion of the fraction was treated with 250 mM NaCl (−HAM) which served as control.

mBCO2 [2] = biological target: T1, mBCO2; test: Immunocolocalization of mBCO2 in COS7 cells by confocal microscopy; type: cell-based; conditions: for percent of colocalization of mBCO2 with nuclear marker: 5 h, lutein 0.15 μM, violaxanthin 0.6 μM, compared with zeaxanthin 0.45 μM
Protocol: BCO2-overexpressing COS7 cells (1×10^6 cells/mL) seeded on poly L-lysine coated 18 mm coverslips were analyzed by immunofluorescence microscopy to determine the localization of BCO2 protein in different subcellular organelles as described previously. Briefly, COS7 cells were transfected with 20 μg of BCO2-Lumio V5 tag plasmid using Fugene® 6 transfection reagent (1:6 DNA: Fugene 6 ratio). After 43 h, BCO2-transfected cells were treated with substrate-encapsulated LUVs for 5 h. Fixed cells were immunostained with V5 monoclonal and polyclonal antibodies alone and together with primary antibodies specific for different subcellular organelles (ER (PDIA3), Golgi (MAN2A1), mitochondria (COX IV and HSP60), and peroxisomes (PMP70)), followed by Alexa fluorophore-conjugated secondary antibodies (Invitrogen). Cell nuclei were stained with DAPI (1 μg/μL solution; Sigma). Slides were then visualized with a Zeiss LSM 700 confocal microscope using a 40× oil immersion lens/1.4-NA and Zeiss ZEN software. Pearson's correlation coefficient values were determined for analysis of the co-localization of BCO2 protein and different organelles and represented as mean±standard deviation. For nuclear co-localization of BCO2 protein, the Pearson's correlation coefficient of BCO2 with DAPI-stained nuclei was measured using the results from three independent experiments: single labeling of BCO2 “alone”, double labeling of BCO2 with mitochondrial markers COX IV and HSP60. Results shown were typical of a minimum of three independent experiments with 5-10 fields of view containing on average 1-10 cells/field of view.
Next, BCO2 localization by immunofluorescence microscopy was examined using mBCO2 transfected COST cells with various organellar markers (for mitochondria, peroxisomes, endoplasmic reticulum (ER), and Golgi). It was confirmed that V5 tag antibodies recognize specifically mBCO2-V5 protein in transfected HEK293F cells (FIG. 12A-12F). For nuclear labeling, DAPI nuclear stain was used. […]

[3] = Spectroscopic (UV/Vis) determination of the concentration of xanthophylls in LUVs; type: physicochemical
Protocol: The concentrations of xanthophylls were measured using a 2 mm optical path quartz cell in an Agilent Cary 60 UV-Vis spectrophotometer. To measure the concentration of xanthophylls in LUVs, a 10 μL aliquot is mixed with 300 μL of DMF. Standards and samples were measured at least 3 times and the data were averaged.

HEK293F cells = test: Tween 40 delivery: effect on HEK293F cells; type: cell-based, human; conditions: higher concentration of Tween 40 (0.1%)
Description: as §1

mBCO2 [4] = biological target: T1, mBCO2; conditions: HEK293F cells, earlier work [34]; cited from earlier work
mBCO2 [5] = biological target: T1, mBCO2; conditions: earlier work [34]; cited from earlier work

Compound: CC(/C=C/C=C(C)/C=C/[C@@]12O[C@]1(C)C[C@@H](O)CC2(C)C)=C\C=C\C=C(C)\C=C\C=C(C)\C=C\[C@@]12O[C@]1(C)C[C@@H](O)CC2(C)C [violaxanthin]
- mBCO2 palmitoylation (protein band in HAM-treated sample) (mBCO2 [1]; 0.6 μM, DMPC/DMPS-encapsulated): residual mBCO2 palmitoylation is seen in some samples
- percent of colocalization of mBCO2 with nuclear marker (mBCO2 [2]): higher
- final concentration of xanthophyll in LUVs measured by UV/Vis ([3]; DMPC/DMPS LUVs): 0.07 g/L

Compound: Tween 40 [reference compound]
- effect on mBCO2 membrane association in Acyl-RAC assay (mBCO2 [1]; lower concentration of Tween 40 (0.01%)): eluted mBCO2 from membranes during the Acyl-RAC assay even without hydroxylamine treatment
- effect on HEK293F cells (HEK293F cells): led to HEK293F cell apoptosis

Compound: CC1=C(/C=C/C(C)=C/C=C/C(C)=C/C=C/C=C(C)/C=C/C=C(C)/C=C/C2=C(C)CCCC2(C)C)C(C)(C)CCC1 [β-carotene]
- mBCO2 palmitoylation in presence of substrate (mBCO2 [4]): loses palmitoylation
- mBCO2 colocalization with the nuclear DAPI stain (mBCO2 [5]): mBCO2 colocalization with the nuclear DAPI stain was observed

Compound: CC1=C[C@H](O)CC(C)(C)[C@H]1/C=C/C(C)=C/C=C/C(C)=C/C=C/C=C(C)/C=C/C=C(C)/C=C/C1=C(C)C[C@@H](O)CC1(C)C [lutein]
- mBCO2 palmitoylation (protein band in HAM-treated sample) (mBCO2 [1]; 0.06 μM lutein in DMPC/DMPS): no protein band was detected in the HAM-treated sample; also recorded: residual mBCO2 palmitoylation is seen in some samples
- mBCO2 palmitoylation (protein band in HAM-treated sample) (mBCO2 [1]; 0.15 μM lutein in DMPC/DMPS): no protein band was detected in the HAM-treated sample
- percent of colocalization of mBCO2 with nuclear marker (mBCO2 [2]): higher
- percent colocalization of BCO2 in the nucleus (mBCO2 [2]; lower concentration of lutein (0.06 μM) versus 0.15 μM): decreased in a lutein concentration-dependent manner
- final concentration of xanthophyll in LUVs measured by UV/Vis ([3]; DMPC/DMPS LUVs): 0.0125 g/L

Compound: CC1=C(/C=C/C(C)=C/C=C/C(C)=C/C=C/C=C(C)/C=C/C=C(C)/C=C/C2=C(C)C[C@@H](O)CC2(C)C)C(C)(C)C[C@H](O)C1 [zeaxanthin]
- mBCO2 palmitoylation (protein band in HAM-treated sample) (mBCO2 [1]; 0.45 μM, DPPC/DPPS-encapsulated): residual mBCO2 palmitoylation is seen in some samples
- final concentration of xanthophyll in LUVs measured by UV/Vis ([3]; DMPC/DMPS LUVs): 0.14 g/L
- final concentration of xanthophyll in LUVs measured by UV/Vis ([3]; DPPC/DPPS LUVs): 0.038 g/L
